Measured values taken from patent US10603296B1, “Compositions and methods for diagnosis and treatment of neuromuscular disorders” (United States of America as represented by the Secretary of …, priority 2019, dated 2020).
“Also recorded” adds a separate entry of the source.

Experiments:
[1] = test system: G-protein Gi1α; conditions: literature (Galbiati et al., Biochem J 313:717-720); cited from earlier work
[2] = test system: alpha-smooth muscle actin (α-SMA); assay: BioMAP human primary cell system mimicking myofibroblast development: alpha-smooth muscle actin level; type: cell-based; conditions: human primary lung fibroblasts stimulated with TGF-β and TNF-α, 24 hours; 2.6, 7.8, 23 and 70 μM; dose-dependent (FIG. 4)
Description: Phenotypic profiling, including antifibrotic activity, was conducted across 12 human primary cell-based systems as part of DiscoverX's BioMAP Diversity Plus program. These systems are designed to model complex human tissue and disease biology of the vasculature, skin, lung, and inflammatory tissues. […] Cell-based activated systems were incubated with pure N-acetylhistamine for 24 to 72 hours. Protein-based biomarkers from activated cell systems were measured and compared with controls. Biomarker activities were annotated when 2 or more consecutive concentrations change in the same directions relative to vehicle controls, were outside of the significance envelope and had at least one concentration with an effect size >20% (log 10 ratio)>0.1.
In our study, N-acetylhistamine, an […] involved in histadine metabolism, caused a significant and dose-dependent decrease in alpha-smooth muscle actin (α-SMA), a protein involved in muscle contraction, cell motility, structure and integrity and a marker for activated myofibroblast phenotype, in a human cell system mimicking myofibroblast development. In this system, human primary lung fibroblasts were stimulated with TGF-β and TNF-α and incubated with the test agent, drug control, or vehicle control for 24 hours. A negative, non-stimulated system was also included.

[3] = room temperature; cited from earlier work

SMILES | effect on myristoylation of Gi1α [1] | change in alpha-smooth muscle actin (α-SMA) compared to internal controls [2] | stability of the powder [3]
CCCCCCCCCCCCC(O)C(=O)O (stereo not drawn) [2-hydroxymyristate] | inhibits | – | –
CC(=O)NCCc1c[nH]cn1 [N-acetylhistamine] | – | significantly decreased; also recorded: lowered | stable at room temperature
